For one test, the system named is EGFR DTC. As to the kind of experiment: Cell Degradation 3: EGFR degradation in BaF3 cells (DTC), HTRF assay. The format is cell-based. Conditions: 16 h treatment, EGFR degradation by HTRF. The procedure: (§1) Cell Degradation 3 Cell Treatment
(§2) BaF3 cells are treated with compounds diluted in 0.2% DMSO, dilution is done according to the following protocol: (1) make 500× stock solution in DMSO from 5 mM by 4-fold dilution, total 8 doses were included; (2) make 2× solution in cell culture medium by transferring 0.5 μl 500× stock solution into 125 μl medium; (3) 30 μl of 2× solution is added to cells and incubate for 16 h.
(§3) After 16 h treatment, add 20 μl 4×lysis buffer to each well; seal the plate and incubate 1 hour at room temperature on a plate shaker; Once the cells are lysed, 16 μL of cell lysate are transferred to a PE 384-well HTRF detection plate (for triple mutant cells, the lysate were diluted by the qual volume 1×lysis buffer before transfer); 4 μL of pre-mixed HTRF antibodies are added to each well; Cover the plate with a plate sealer, spin 1000 rpm for 1 min, Incubate overnight at room temperature; Read on BMG PheraStar with HTRF protocol (337 nm-665 nm-620 nm).
(§4) The IC50 (DC50) value of a compound can be obtained by fitting the following equation Y=Bottom+(TOP−Bottom)/(1+((IC50/X)^hillslope))
(§5) Wherein, X and Y are known values, and IC50, Hillslope, Top and Bottom are the parameters obtained by fitting with software. Y is the inhibition percentage (calculated from the equation), X is the concentration of the compound; IC50 is the concentration of the compound when the 50% inhibition is reached. The smaller the IC50 value is, the stronger the inhibitory ability of the compound is. Vice versa, the higher the IC50 value is, the weaker the ability the inhibitory ability of the compound is; Hillslope represents the slope of the fitted curve, generally around 1*; Bottom represents the minimum value of the curve obtained by data fitting, which is generally 0%±20%; Top represents the maximum value of the curve obtained by data fitting, which is generally 100%±20%. The experimental data were fitted by calculating and analyzing with Dotmatics data analysis software.

The target of the next test is T1, EGFR LTC (Homo sapiens, UniProt P00533, C797S/L858R/T790M).
T1 construct: expressed in transfected cells; host or cells: BaF3
As to the kind of experiment: Cell Degradation 3: EGFR degradation in BaF3 cells (LTC), HTRF assay. It counts as cell-based. Conditions: 16 h treatment, EGFR degradation by HTRF. The procedure:
as §1, §2, §3, §4, §5
On the technique in general: TR-FRET usually uses a lanthanide donor and a delayed reading to cut background.

What is called DC50 is the midpoint of the concentration-degradation curve. Low values mean a more potent degrader, high ones a less potent degrader.

T1 sequence (P00533 25-1210 T790M/C797S/L858R): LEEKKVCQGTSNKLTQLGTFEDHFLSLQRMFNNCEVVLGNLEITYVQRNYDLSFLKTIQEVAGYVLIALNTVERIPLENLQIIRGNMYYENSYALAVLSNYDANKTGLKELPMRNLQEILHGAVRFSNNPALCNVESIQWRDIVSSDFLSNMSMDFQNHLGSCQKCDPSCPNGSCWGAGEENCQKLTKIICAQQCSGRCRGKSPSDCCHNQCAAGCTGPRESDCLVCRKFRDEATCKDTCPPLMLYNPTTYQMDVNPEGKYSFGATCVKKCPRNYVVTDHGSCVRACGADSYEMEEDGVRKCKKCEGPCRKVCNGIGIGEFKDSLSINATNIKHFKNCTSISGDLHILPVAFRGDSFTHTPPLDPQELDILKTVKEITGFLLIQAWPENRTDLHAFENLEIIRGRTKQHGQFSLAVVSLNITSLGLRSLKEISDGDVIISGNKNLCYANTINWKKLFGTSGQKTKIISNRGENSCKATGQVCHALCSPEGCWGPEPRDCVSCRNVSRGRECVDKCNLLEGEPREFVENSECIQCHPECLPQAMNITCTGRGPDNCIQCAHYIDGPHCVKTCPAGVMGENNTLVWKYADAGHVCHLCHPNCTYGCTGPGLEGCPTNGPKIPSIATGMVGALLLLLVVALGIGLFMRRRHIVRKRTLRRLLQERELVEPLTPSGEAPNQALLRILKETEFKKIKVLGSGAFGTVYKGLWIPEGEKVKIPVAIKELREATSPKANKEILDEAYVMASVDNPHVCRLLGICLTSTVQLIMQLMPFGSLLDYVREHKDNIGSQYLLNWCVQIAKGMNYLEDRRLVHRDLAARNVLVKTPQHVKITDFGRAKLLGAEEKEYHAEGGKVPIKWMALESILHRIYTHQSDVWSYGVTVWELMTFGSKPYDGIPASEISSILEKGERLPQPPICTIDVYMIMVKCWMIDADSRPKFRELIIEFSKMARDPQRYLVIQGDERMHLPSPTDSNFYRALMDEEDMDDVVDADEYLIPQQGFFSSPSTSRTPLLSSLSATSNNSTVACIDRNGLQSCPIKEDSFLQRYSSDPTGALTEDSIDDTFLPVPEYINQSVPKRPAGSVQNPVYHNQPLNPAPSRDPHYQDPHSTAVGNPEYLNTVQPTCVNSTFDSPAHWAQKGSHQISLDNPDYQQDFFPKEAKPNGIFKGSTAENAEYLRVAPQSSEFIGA

On to `COc1cc(N2CCC(N3CCN(C(=O)C4CN(c5ccc6c(c5)C(=O)N(C5CCC(=O)NC5=O)C6)C4)CC3)CC2)c(C)cc1Nc1ncc(Br)c(Nc2cccc3c2N(S(C)(=O)=O)CC3)n1` (stereo not drawn) [Example 171, 3-(6-(3-(4-(1-(4-((5-bromo-4-((1-(methylsulfonyl)indolin-7-yl)amino)pyrimidin-2-yl)amino)-5-methoxy-2-methylphenyl)piperidin-4-yl)piperazine-1-carbonyl)azetidin-1-yl)-1-oxoisoindolin-2-yl)piperidine-2,6-dione], for which the figures for the 50% degradation concentration (DC50) with EGFR DTC and on EGFR LTC were 4 nM and 9 nM, respectively.

Take `COc1cc(N2CCC(N3CCN(C(=O)C4CN(c5cc(F)c(C6CCC(=O)NC6=O)c(F)c5)C4)CC3)CC2)c(C)cc1Nc1ncc(Br)c(Nc2cccc3c2N(S(C)(=O)=O)CC3)n1` (stereo not drawn) [Example 188, 3-(4-(3-(4-(1-(4-((5-bromo-4-((1-(methylsulfonyl)indolin-7-yl)amino)pyrimidin-2-yl)amino)-5-methoxy-2-methylphenyl)piperidin-4-yl)piperazine-1-carbonyl)azetidin-1-yl)-2,6-difluorophenyl)piperidine-2,6-dione]: the DC50 in the test with EGFR DTC was 6 nM; at EGFR LTC, 15 nM.

For `COc1cc(N2CCC(N3CCN(CCc4cc(F)c(C5CCC(=O)NC5=O)cc4F)CC3)CC2)c(C)cc1Nc1ncc(Br)c(Nc2cccc3c2N(S(C)(=O)=O)CC3)n1` (stereo not drawn) [Example 155, 3-(4-(2-(4-(1-(4-((5-bromo-4-((1-(methylsulfonyl)indolin-7-yl)amino)pyrimidin-2-yl)amino)-5-methoxy-2-methylphenyl)piperidin-4-yl)piperazin-1-yl)ethyl)-2,5-difluorophenyl)piperidine-2,6-dione], the results for the DC50 in the test with EGFR DTC and on EGFR LTC were 19 nM and 56 nM, respectively.

On to `COc1cc(N2CCC(N3CCN(C4CCN(c5cccc(C6CCC(=O)NC6=O)c5)CC4)CC3)CC2)c(C)cc1Nc1ncc(Br)c(Nc2cccc3c2N(S(C)(=O)=O)CC3)n1` (stereo not drawn) [Example 177, 3-(3-(4-(4-(1-(4-((5-bromo-4-((1-(methylsulfonyl)indolin-7-yl)amino)pyrimidin-2-yl)amino)-5-methoxy-2-methylphenyl)piperidin-4-yl)piperazin-1-yl)piperidin-1-yl)phenyl)piperidine-2,6-dione], for which the 50% degradation concentration (DC50) in the test with EGFR DTC is more than 10000 nM; on EGFR LTC, 123 nM.

Take `COc1cc(N2CCC(N3CCN(C4CCN(c5ccc6c(c5)C(=O)N(C5CCC(=O)NC5=O)C6=O)CC4)CC3)CC2)c(C)cc1Nc1ncc(Br)c(Nc2cccc3c2N(S(C)(=O)=O)CC3)n1` (stereo not drawn) [Example 167, 5-(4-(4-(1-(4-((5-bromo-4-((1-(methylsulfonyl)indolin-7-yl)amino)pyrimidin-2-yl)amino)-5-methoxy-2-methylphenyl)piperidin-4-yl)piperazin-1-yl)piperidin-1-yl)-2-(2,6-dioxopiperidin-3-yl)isoindoline-1,3-dione]: the half-maximal degradation concentration (DC50) was 225 nM in the test with EGFR DTC and more than 10000 nM on EGFR LTC.

Take `COc1cc(N2CCC(N3CCN(CC4CN(c5cc(F)c(C6CCC(=O)NC6=O)c(F)c5)C4)CC3)CC2)c(C)cc1Nc1ncc(Br)c(Nc2cccc3c2N(S(C)(=O)=O)CC3)n1` (stereo not drawn) [Example 184, 3-(4-(3-((4-(1-(4-((5-bromo-4-((1-(methylsulfonyl)indolin-7-yl)amino)pyrimidin-2-yl)amino)-5-methoxy-2-methylphenyl)piperidin-4-yl)piperazin-1-yl)methyl)azetidin-1-yl)-2,6-difluorophenyl)piperidine-2,6-dione]: the results for the DC50 with EGFR DTC and at EGFR LTC were 27 nM and 33 nM, respectively.

As for `COc1cc(N2CCC(N3CCN(CC4CN(c5ccc(C6CCC(=O)NC6=O)c(F)c5)C4)CC3)CC2)c(C)cc1Nc1ncc(Br)c(Nc2cccc3c2N(S(C)(=O)=O)CC3)n1` (stereo not drawn) [Example 169, 3-(4-(3-((4-(1-(4-((5-bromo-4-((1-(methylsulfonyl)indolin-7-yl)amino)pyrimidin-2-yl)amino)-5-methoxy-2-methylphenyl)piperidin-4-yl)piperazin-1-yl)methyl)azetidin-1-yl)-2-fluorophenyl)piperidine-2,6-dione], the results for the DC50 in the test on EGFR DTC and at EGFR LTC were 39 nM and 57 nM, respectively.

Regarding `COc1cc(N2CCC(N3CCN(CCc4cc(F)c(C5CCC(=O)NC5=O)c(F)c4)CC3=O)CC2)c(C)cc1Nc1ncc(Br)c(Nc2cccc3c2N(S(C)(=O)=O)CC3)n1` (stereo not drawn) [Example 185, 3-(4-(2-(4-(1-(4-((5-bromo-4-((1-(methylsulfonyl)indolin-7-yl)amino)pyrimidin-2-yl)amino)-5-methoxy-2-methylphenyl)piperidin-4-yl)-3-oxopiperazin-1-yl)ethyl)-2,6-difluorophenyl)piperidine-2,6-dione], the values for the 50% degradation concentration (DC50) with EGFR DTC and at EGFR LTC were 4 nM and 18 nM, respectively.

As to `COc1cc(N2CCC(N3CCN(C[C@H]4C[C@H](N(C)c5ccc6c(c5)C(=O)N(C5CCC(=O)NC5=O)C6=O)C4)CC3)CC2)c(C)cc1Nc1ncc(Br)c(Nc2cccc3c2N(S(C)(=O)=O)CC3)n1` (stereo partly drawn) [Example 165, 5-(((1r,3r)-3-((4-(1-(4-((5-bromo-4-((1-(methylsulfonyl)indolin-7-yl)amino)pyrimidin-2-yl)amino)-5-methoxy-2-methylphenyl)piperidin-4-yl)piperazin-1-yl)methyl)cyclobutyl)(methyl)amino)-2-(2,6-dioxopiperidin-3-yl)isoindoline-1,3-dione], the DC50 was 91 nM with EGFR DTC and 100 nM at EGFR LTC.

Regarding `COc1cc(N2CCC(N3CCN(C[C@H]4C[C@H](N(C)c5ccc(C6CCC(=O)NC6=O)cc5)C4)CC3)CC2)c(C)cc1Nc1ncc(Br)c(Nc2cccc3c2N(S(C)(=O)=O)CC3)n1` (stereo partly drawn) [Example 176, 3-(4-(((1r,3r)-3-((4-(1-(4-((5-bromo-4-((1-(methylsulfonyl)indolin-7-yl)amino)pyrimidin-2-yl)amino)-5-methoxy-2-methylphenyl)piperidin-4-yl)piperazin-1-yl)methyl)cyclobutyl)(methyl)amino)phenyl)piperidine-2,6-dione], the DC50 in the test with EGFR DTC is 94 nM; at EGFR LTC it was 65 nM.

As to `COc1cc(N2CCC(N3CCN(CC4CN(c5ccc6c(c5)C(=O)N(C5CCC(=O)NC5=O)C6)C4)CC3)CC2)c(C)cc1Nc1ncc(Br)c(Nc2cccc3c2N(S(C)(=O)=O)CC3)n1` (stereo not drawn) [Example 180, 3-(6-(3-((4-(1-(4-((5-bromo-4-((1-(methylsulfonyl)indolin-7-yl)amino)pyrimidin-2-yl)amino)-5-methoxy-2-methylphenyl)piperidin-4-yl)piperazin-1-yl)methyl)azetidin-1-yl)-1-oxoisoindolin-2-yl)piperidine-2,6-dione], the DC50 in the test with EGFR DTC was found to be 14 nM; at EGFR LTC it was 30 nM.

As to `COc1cc(N2CCC(N3CCN(CCc4ccc(C5CCC(=O)NC5=O)c(F)c4)CC3)CC2)c(C)cc1Nc1nc(Nc2cccc3c2N(S(C)(=O)=O)CC3)c2cc[nH]c2n1` (stereo not drawn) [Example 162, 3-(2-fluoro-4-(2-(4-(1-(5-methoxy-2-methyl-4-((4-((1-(methylsulfonyl)indolin-7-yl)amino)-7H-pyrrolo[2,3-d]pyrimidin-2-yl)amino)phenyl)piperidin-4-yl)piperazin-1-yl)ethyl)phenyl)piperidine-2,6-dione], the DC50 in the test on EGFR DTC is 78 nM; at EGFR LTC it was more than 10000 nM.

`COc1cc(N2CCC(N3CCN(C[C@@H]4CCN(c5ccc6c(c5)C(=O)N(C5CCC(=O)NC5=O)C6=O)C4)CC3)CC2)c(C)cc1Nc1ncc(Br)c(Nc2cccc3c2N(S(C)(=O)=O)CC3)n1` (stereo partly drawn) [Example 164, 5-((S)-3-((4-(1-(4-((5-bromo-4-((1-(methylsulfonyl)indolin-7-yl)amino)pyrimidin-2-yl)amino)-5-methoxy-2-methylphenyl)piperidin-4-yl)piperazin-1-yl)methyl)pyrrolidin-1-yl)-2-(2,6-dioxopiperidin-3-yl)isoindoline-1,3-dione]: the DC50 in the test with EGFR DTC stood at 52 nM; at EGFR LTC, 60 nM.

Take `COc1cc(N2CCC(N3CCN(CC4CN(c5ccc6c(c5)C(=O)N(C5CCC(=O)NC5=O)C6=O)C4)CC3)CC2)c(C)cc1Nc1ncc(Br)c(Nc2cccc3c2N(S(C)(=O)=O)CC3)n1` (stereo not drawn) [Example 151, 5-(3-((4-(1-(4-((5-bromo-4-((1-(methylsulfonyl)indolin-7-yl)amino)pyrimidin-2-yl)amino)-5-methoxy-2-methylphenyl)piperidin-4-yl)piperazin-1-yl)methyl)azetidin-1-yl)-2-(2,6-dioxopiperidin-3-yl)isoindoline-1,3-dione]: the DC50 in the test with EGFR DTC stood at 14 nM; at EGFR LTC, 17 nM.

With `COc1cc(N2CCC(N3CCN(CCC4CCN(c5cc(F)c(C6CCC(=O)NC6=O)c(F)c5)CC4)CC3=O)CC2)c(C)cc1Nc1ncc(Br)c(Nc2cccc3c2N(S(C)(=O)=O)CC3)n1` (stereo not drawn) [Example 186, 3-(4-(4-(2-(4-(1-(4-((5-bromo-4-((1-(methylsulfonyl)indolin-7-yl)amino)pyrimidin-2-yl)amino)-5-methoxy-2-methylphenyl)piperidin-4-yl)-3-oxopiperazin-1-yl)ethyl)piperidin-1-yl)-2,6-difluorophenyl)piperidine-2,6-dione], the DC50 was found to be 6 nM with EGFR DTC and 27 nM on EGFR LTC.

These data come from patent US12643903B2, “Bifunctional compounds for degradation of EGFR and related methods of use” (BeiGene, Ltd., priority 2020, dated 2026).
